Results reported in ChEMBL document CHEMBL6109057, “Synthesis of harmaline N-9 derivatives and investigation of in vitro anticancer activity” (Bioorg Med Chem Lett, 2025).
Calls of active or inactive are those of the source. The calls are words filed in the database; no cut-off is given here.

Key:
HCT-116 [1] = test: Antiproliferative activity against human HCT-116 cells assessed as reduction in cell viability at 50 uM measured after 24 hrs; assay type: functional, cell-based
MGC-803 [2] = test: Antiproliferative activity against human MGC-803 cells assessed as reduction in cell viability at 50 uM measured after 24 hrs; assay type: functional, cell-based
MCF7 [3] = test: Antiproliferative activity against human MCF7 cells assessed as reduction in cell viability at 50 uM measured after 24 hrs; assay type: functional, cell-based
MGC-803 [4] = test: Antiproliferative activity against human MGC-803 cells assessed as cell viability at 50 uM measured after 24 hrs relative to control; assay type: functional; details: read-out: Activity
MCF7 [5] = test: Antiproliferative activity against human MCF7 cells assessed as cell viability at 50 uM measured after 24 hrs relative to control; assay type: functional; details: read-out: Activity
HCT-116 [6] = test: Antiproliferative activity against human HCT-116 cells assessed as cell viability at 50 uM measured after 24 hrs relative to control; assay type: functional; details: read-out: Activity
MGC-803 [7] = test: Antimigratory activity against human MGC-803 cells assessed as increase in aggregated dead cells at 10 uM measured after 24 hrs by scratch assay; assay type: functional, cell-based
MGC-803 [8] = test: Effect on metabolic changes in human MGC-803 cells assessed as down regulation of GSH level at 4 uM by 1H-NMR analysis; assay type: functional, cell-based
MGC-803 [9] = test: Effect on metabolic changes in human MGC-803 cells assessed as down regulation of AMP level at 4 uM by 1H-NMR analysis; assay type: functional, cell-based
MCF7 [10] = test: Antiproliferative activity against human MCF7 cells assessed as reduction in cell viability measured after 24 hrs; assay type: functional, cell-based; details: MCF7, 24 h
MGC-803 [11] = test: Effect on metabolic changes in human MGC-803 cells assessed as down regulation of choline phosphate level at 4 uM by 1H-NMR analysis; assay type: functional, cell-based
MGC-803 [12] = test: Antimigratory activity against human MGC-803 cells assessed as migration rate at 5 uM measured after 24 hrs scratch assay (reference value: 40.72 +/- 0.86%); assay type: functional
MGC-803 [13] = test: Effect on metabolic changes in human MGC-803 cells assessed as upregulation of glycine level at 4 uM by 1H-NMR analysis; assay type: functional, cell-based
[14] = Inhibition of cell clone formation in human MGC-803 cells assessed as percentage of area of cell clones at 1 uM (reference value: 1 +/- 0.02%); assay type: functional; design: scale not given: the % may be the effect or the level left
MGC-803 [15] = test: Antimigratory activity against human MGC-803 cells assessed as migration rate at 2.5 uM measured after 48 hrs scratch assay (reference value: 63 +/- 1.61%); assay type: functional
MGC-803 [16] = test: Antimigratory activity against human MGC-803 cells assessed as increase in number of floating cells at 10 uM measured after 24 hrs by scratch assay; assay type: functional, cell-based
MGC-803 [17] = test: Effect on metabolic changes in human MGC-803 cells assessed as down regulation of aspartic acid level at 4 uM by 1H-NMR analysis; assay type: functional, cell-based
MGC-803 [18] = test: Antimigratory activity against human MGC-803 cells assessed as migration rate at 5 uM measured after 48 hrs scratch assay (reference value: 63 +/- 1.61%); assay type: functional
MGC-803 [19] = test: Antimigratory activity against human MGC-803 cells assessed as migration rate at 2.5 uM measured after 24 hrs scratch assay (reference value: 40.72 +/- 0.86%); assay type: functional
[20] = Cytotoxicity against HEK293FT cells assessed as reduction in cell viability measured after 24 hrs; assay type: toxicity, cell-based; details: human
MGC-803 [21] = test: Effect on metabolic changes in human MGC-803 cells assessed as upregulation of leucine level at 4 uM by 1H-NMR analysis; assay type: functional, cell-based
MGC-803 [22] = test: Effect on metabolic changes in human MGC-803 cells assessed as down regulation of taurine level at 4 uM by 1H-NMR analysis; assay type: functional, cell-based
HCT-116 [23] = test: Antiproliferative activity against human HCT-116 cells assessed as reduction in cell viability measured after 24 hrs; assay type: functional, cell-based; details: HCT-116, 24 h
[24] = Inhibition of cell clone formation in human MGC-803 cells assessed as percentage of area of cell clones at 2.5 uM (reference value: 1 +/- 0.02%); assay type: functional; design: scale not given: the % may be the effect or the level left
[25] = Inhibition of cell clone formation in human MGC-803 cells assessed as percentage of area of cell clones at 1.5 uM (reference value: 1 +/- 0.02%); assay type: functional; design: scale not given: the % may be the effect or the level left
MGC-803 [26] = test: Effect on metabolic changes in human MGC-803 cells assessed as down regulation of ADP level at 4 uM by 1H-NMR analysis; assay type: functional, cell-based
MGC-803 [27] = test: Effect on metabolic changes in human MGC-803 cells assessed as down regulation of NAD+ level at 4 uM by 1H-NMR analysis; assay type: functional, cell-based
MGC-803 [28] = test: Antiproliferative activity against human MGC-803 cells assessed as reduction in cell viability measured after 24 hrs; assay type: functional, cell-based; details: MGC-803, 24 h
MGC-803 [29] = test: Antimigratory activity against human MGC-803 cells assessed as increase in large number of dead cells at 10 uM measured after 48 hrs by scratch assay; assay type: functional, cell-based
MGC-803 [30] = test: Effect on metabolic changes in human MGC-803 cells assessed as down regulation of creatine level at 4 uM by 1H-NMR analysis; assay type: functional, cell-based
4T1 = test: Antiproliferative activity against mouse 4T1 cells assessed as reduction in cell viability measured after 24 hrs by MTT assay; assay type: functional, cell-based; details: 4T1, 24 h
HepG2 = test: Antiproliferative activity against human HepG2 cells assessed as reduction in cell viability measured after 48 hrs by 3-(4,5-dimethylthiazol-2-yl)-2,5-diphenyltetrazolium bromide assay; assay type: functional, cell-based; details: HepG2, 48 h
HeLa = test: Antiproliferative activity against human HeLa cells assessed as reduction in cell viability measured after 48 hrs by 3-(4,5-dimethylthiazol-2-yl)-2,5-diphenyltetrazolium bromide assay; assay type: functional, cell-based
U-87 MG [31] = test: Antiproliferative activity against human U87 cells assessed as reduction in cell viability measured after 24 hrs; assay type: functional, cell-based, U-87MG ATCC
A549 = test: Antiproliferative activity against human A549 cells assessed as reduction in cell viability measured after 48 hrs by MTT assay; assay type: functional, cell-based; details: A549, 48 h
U-87 MG [32] = test: Antiproliferative activity against human U87 cells assessed as reduction in cell viability measured after 48 hrs; assay type: functional, cell-based, U-87MG ATCC
SGC-7901 = test: Antiproliferative activity against human SGC-7901 cells assessed as reduction in cell viability measured after 48 hrs by MTT assay; assay type: functional, cell-based; details: SGC-7901, 48 h
NCI-H1299 = test: Antiproliferative activity against human NCI-H1299 cells assessed as reduction in cell viability measured after 48 hrs by MTT assay; assay type: functional, cell-based; details: NCI-H1299, 48 h

## COC(=O)Cn1c2c(c3ccc(OC)cc31)CCN=C2C
HCT-116 [1]
  Activity: Active
MGC-803 [2]
  Activity: Active
MCF7 [3]
  Activity: Active

## COc1ccc2c3c(n(Cc4ccccc4)c2c1)C(C)=NCC3
HCT-116 [1]
  Activity: Active
MGC-803 [2]
  Activity: Active
MCF7 [3]
  Activity: Active

## COc1ccc2c3c(n(Cc4ccc(C)cc4)c2c1)C(C)=NCC3
HCT-116 [1]
  Activity: Active
MGC-803 [2]
  Activity: Active
MCF7 [3]
  Activity: Active

## COC(=O)CCn1c2c(c3ccc(OC)cc31)CCN=C2C
HCT-116 [1]
  Activity: Active
MGC-803 [2]
  Activity: Active
MCF7 [3]
  Activity: Active

## COc1ccc2c3c(n(Cc4ccccc4C)c2c1)C(C)=NCC3
HCT-116 [1]
  Activity: Active
MGC-803 [2]
  Activity: Active
MCF7 [3]
  Activity: Active

## COc1ccc2c3ccnc(C)c3n(CCCCCn3c4cc(OC)ccc4c4ccnc(C)c43)c2c1
MGC-803 [4]
  viability at 50 µM: ~59%
MCF7 [5]
  viability at 50 µM: ~35%
HCT-116 [6]
  viability at 50 µM: ~31%

## COc1ccc2c3c(n(CCCCCn4c5cc(OC)ccc5c5ccnc(C)c54)c2c1)C(C)=NCC3
MGC-803 [4]
  viability at 50 µM: < 10%
MGC-803 [7]
  Activity: Active
MGC-803 [8]
  Activity: Active
MGC-803 [9]
  Activity: Active
MCF7 [10]
  IC50: 8.67 µM
MGC-803 [11]
  Activity: Active
MGC-803 [12]
  Activity: 20.76%
MGC-803 [13]
  Activity: Active
[14]
  Activity: 0.56%
MGC-803 [15]
  Activity: 44.14%
MGC-803 [16]
  Activity: Active
MGC-803 [17]
  Activity: Active
MGC-803 [18]
  Activity: 33.65%
MGC-803 [19]
  Activity: 25.5%
[20]
  IC50 at 24 h: 47.6 µM
MGC-803 [21]
  Activity: Active
MGC-803 [22]
  Activity: Active
HCT-116 [23]
  IC50: 3.84 µM
[24]
  Activity: 0.02%
[25]
  Activity: 0.33%
MGC-803 [26]
  Activity: Active
MGC-803 [27]
  Activity: Active
MCF7 [5]
  viability at 50 µM: < 10%
HCT-116 [6]
  viability at 50 µM: < 10%
MGC-803 [28]
  IC50: 5.26 µM
MGC-803 [29]
  Activity: Active
MGC-803 [30]
  Activity: Active

## COc1ccc2c3c([nH]c2c1)C(C)=NCC3 [HARMALINE]
MGC-803 [4]
  viability at 50 µM: ~120%
4T1
  IC50: 30.9 µM
HepG2
  IC50: 11.2 µM
HeLa
  IC50: 28 µM
U-87 MG [31]
  IC50: 208 µM
A549
  IC50: 67.9 µM
U-87 MG [32]
  IC50: 127 µM
SGC-7901
  IC50: 4.08 µM
MCF7 [5]
  viability at 50 µM: ~71%
HCT-116 [6]
  viability at 50 µM: ~75%
NCI-H1299
  IC50: 48.2 µM

## C#CCn1c2c(c3ccc(OC)cc31)CCN=C2C
HCT-116 [1]
  Activity: Active
MGC-803 [2]
  Activity: Active
MCF7 [3]
  Activity: Active

## COc1ccc2c3c(n(Cc4cccc(F)c4)c2c1)C(C)=NCC3
HCT-116 [1]
  Activity: Active
MGC-803 [2]
  Activity: Active
MCF7 [3]
  Activity: Active

## COc1ccc2c3c(n(Cc4ccc5ccccc5c4)c2c1)C(C)=NCC3
MGC-803 [4]
  viability at 50 µM: < 10%
MCF7 [10]
  IC50: 11.9 µM
HCT-116 [23]
  IC50: 6.32 µM
MCF7 [5]
  viability at 50 µM: < 10%
HCT-116 [6]
  viability at 50 µM: < 10%
MGC-803 [28]
  IC50: 21.4 µM

## COc1ccc2c3c(n(CCCCCCBr)c2c1)C(C)=NCC3
MGC-803 [4]
  viability at 50 µM: < 10%
MCF7 [10]
  IC50: 18.5 µM
HCT-116 [23]
  IC50: 8.95 µM
MCF7 [5]
  viability at 50 µM: < 10%
HCT-116 [6]
  viability at 50 µM: < 10%
MGC-803 [28]
  IC50: 15.4 µM
